Measurements published in ChEMBL document CHEMBL1909046, “DrugMatrix in vitro pharmacology data”.
Where a SMILES comes first, the peptide text is derived from it. Bridges are numbered along the chain shown (N, C = ends). [ ]: non-standard residue; d: D form. The star is where a group is joined. Ileψ(thiazoline)Cys = CC[C@H](C)[C@H](N)C1=N[C@H](C(=O)*)CS1; dOrn = NCCC[C@@H](N)C(=O)O

Experiments:
[1] = target: Receptor tyrosine-protein kinase erbB-2 (Homo sapiens, UniProt P04626); assay: biochemical; assay type: cell-based, Insect cells;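 further: inhibition of HER2 kinase enzyme activity, measured with Poly(Glu:Tyr) as the phosphorylation substrate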
Histamine H2 receptor = Histamine H2 receptor (Homo sapiens, UniProt P25021); assay type: cell membranes, CHO-K1, Membrane; conditions: cho-k1
[2] = target: T1, Angiotensin-converting enzyme (Oryctolagus cuniculus, UniProt P12822); assay: biochemical; assay type: tissue-based, Lung;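 further: enzymatic inhibition of angiotensin-converting enzyme measured with FAPGG as the substrate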
T1 sequence (P12822 whole entry): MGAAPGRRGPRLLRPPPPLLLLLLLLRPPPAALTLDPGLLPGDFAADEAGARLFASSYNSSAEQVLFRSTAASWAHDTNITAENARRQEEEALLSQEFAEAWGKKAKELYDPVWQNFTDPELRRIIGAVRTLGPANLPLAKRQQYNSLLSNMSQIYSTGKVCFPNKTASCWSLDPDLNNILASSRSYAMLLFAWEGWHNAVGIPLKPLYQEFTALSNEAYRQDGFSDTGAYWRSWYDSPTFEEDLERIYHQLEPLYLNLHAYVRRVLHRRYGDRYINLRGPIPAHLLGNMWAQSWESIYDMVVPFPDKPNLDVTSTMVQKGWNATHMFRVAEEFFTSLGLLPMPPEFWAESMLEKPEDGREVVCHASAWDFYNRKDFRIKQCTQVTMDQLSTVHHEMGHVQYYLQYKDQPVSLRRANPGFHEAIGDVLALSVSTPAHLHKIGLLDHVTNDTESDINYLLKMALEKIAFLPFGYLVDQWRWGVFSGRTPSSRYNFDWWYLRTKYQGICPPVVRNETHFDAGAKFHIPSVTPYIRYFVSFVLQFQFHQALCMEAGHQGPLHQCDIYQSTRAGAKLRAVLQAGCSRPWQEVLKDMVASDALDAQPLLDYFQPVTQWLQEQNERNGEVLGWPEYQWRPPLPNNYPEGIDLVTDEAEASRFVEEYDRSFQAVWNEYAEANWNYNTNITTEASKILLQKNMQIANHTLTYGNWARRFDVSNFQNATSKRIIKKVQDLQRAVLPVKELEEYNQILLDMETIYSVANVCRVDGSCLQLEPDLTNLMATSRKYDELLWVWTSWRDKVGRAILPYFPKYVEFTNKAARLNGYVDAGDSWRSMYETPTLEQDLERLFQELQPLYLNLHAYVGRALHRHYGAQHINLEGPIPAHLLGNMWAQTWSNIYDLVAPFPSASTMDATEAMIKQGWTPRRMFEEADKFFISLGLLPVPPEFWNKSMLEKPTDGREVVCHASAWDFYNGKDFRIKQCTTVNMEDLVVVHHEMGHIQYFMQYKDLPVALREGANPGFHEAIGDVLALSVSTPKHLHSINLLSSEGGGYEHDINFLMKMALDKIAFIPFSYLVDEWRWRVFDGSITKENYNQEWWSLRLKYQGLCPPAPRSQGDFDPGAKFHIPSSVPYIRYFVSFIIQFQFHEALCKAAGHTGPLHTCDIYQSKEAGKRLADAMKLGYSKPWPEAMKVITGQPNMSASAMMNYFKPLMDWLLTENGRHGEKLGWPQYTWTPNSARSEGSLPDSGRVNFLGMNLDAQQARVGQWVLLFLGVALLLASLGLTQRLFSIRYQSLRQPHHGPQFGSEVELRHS

[3] = target: T2, Receptor-type tyrosine-protein phosphatase C (Homo sapiens, UniProt P08575); design: species or system Escherichia coli;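 further: inhibition of CD45 enzyme activity measured using DiFMUP as substrate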
T2 sequence (P08575 whole entry): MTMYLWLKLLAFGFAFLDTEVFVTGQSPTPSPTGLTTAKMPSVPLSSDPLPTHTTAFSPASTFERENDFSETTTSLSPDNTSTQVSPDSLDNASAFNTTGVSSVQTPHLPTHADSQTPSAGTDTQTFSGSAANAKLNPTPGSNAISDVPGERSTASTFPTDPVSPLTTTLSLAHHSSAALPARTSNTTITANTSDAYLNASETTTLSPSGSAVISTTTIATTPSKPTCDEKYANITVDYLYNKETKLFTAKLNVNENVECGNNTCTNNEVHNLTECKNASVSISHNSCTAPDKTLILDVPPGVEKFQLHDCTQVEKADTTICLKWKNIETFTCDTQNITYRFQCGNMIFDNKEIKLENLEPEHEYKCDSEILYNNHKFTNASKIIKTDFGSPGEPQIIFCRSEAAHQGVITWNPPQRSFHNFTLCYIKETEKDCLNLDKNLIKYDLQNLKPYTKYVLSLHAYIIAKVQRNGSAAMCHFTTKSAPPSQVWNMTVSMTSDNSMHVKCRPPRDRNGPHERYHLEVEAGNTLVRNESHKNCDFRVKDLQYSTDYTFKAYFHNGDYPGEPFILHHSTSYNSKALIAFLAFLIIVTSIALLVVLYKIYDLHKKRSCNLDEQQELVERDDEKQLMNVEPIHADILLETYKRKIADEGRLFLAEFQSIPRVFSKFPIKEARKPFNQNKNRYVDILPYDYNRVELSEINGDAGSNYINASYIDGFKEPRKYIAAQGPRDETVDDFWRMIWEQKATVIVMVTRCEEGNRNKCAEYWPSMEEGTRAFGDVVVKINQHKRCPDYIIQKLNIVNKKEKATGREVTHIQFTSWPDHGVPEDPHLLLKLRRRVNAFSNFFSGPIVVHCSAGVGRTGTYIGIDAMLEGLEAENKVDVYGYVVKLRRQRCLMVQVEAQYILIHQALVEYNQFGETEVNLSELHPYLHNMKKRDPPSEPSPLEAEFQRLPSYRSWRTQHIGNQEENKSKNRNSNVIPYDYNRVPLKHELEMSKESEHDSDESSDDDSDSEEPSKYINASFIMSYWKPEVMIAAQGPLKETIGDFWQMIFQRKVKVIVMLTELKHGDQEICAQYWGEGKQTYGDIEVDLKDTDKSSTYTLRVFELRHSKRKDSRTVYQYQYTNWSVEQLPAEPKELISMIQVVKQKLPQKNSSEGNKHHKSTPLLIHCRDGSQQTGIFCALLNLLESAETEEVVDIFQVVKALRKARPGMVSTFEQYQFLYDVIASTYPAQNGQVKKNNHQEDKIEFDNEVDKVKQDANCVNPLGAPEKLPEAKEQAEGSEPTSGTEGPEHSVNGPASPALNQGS

Cathepsin G = target: T3, Cathepsin G (Homo sapiens, UniProt P08311); assay type: tissue-based; conditions: neutrophil;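 further: inhibition of Cathepsin G enzyme activity, tested on an AMC-conjugated peptide substrate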
T3 sequence (P08311 whole entry): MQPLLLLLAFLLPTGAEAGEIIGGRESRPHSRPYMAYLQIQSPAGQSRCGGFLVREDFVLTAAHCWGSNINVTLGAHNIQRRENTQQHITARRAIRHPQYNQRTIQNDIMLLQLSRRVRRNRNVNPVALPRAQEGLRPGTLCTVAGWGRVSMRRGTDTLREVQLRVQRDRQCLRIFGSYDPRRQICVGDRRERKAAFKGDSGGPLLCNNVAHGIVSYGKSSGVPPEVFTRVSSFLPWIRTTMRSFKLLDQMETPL

[4] = target: Voltage-gated inwardly rectifying potassium channel KCNH2 (Homo sapiens, UniProt Q12809); conditions: hek293
Further: in other assays of this panel Not Active means under 50% inhibition at 10 µM.

Receptor tyrosine-protein kinase erbB-2, sequence (P04626 whole entry): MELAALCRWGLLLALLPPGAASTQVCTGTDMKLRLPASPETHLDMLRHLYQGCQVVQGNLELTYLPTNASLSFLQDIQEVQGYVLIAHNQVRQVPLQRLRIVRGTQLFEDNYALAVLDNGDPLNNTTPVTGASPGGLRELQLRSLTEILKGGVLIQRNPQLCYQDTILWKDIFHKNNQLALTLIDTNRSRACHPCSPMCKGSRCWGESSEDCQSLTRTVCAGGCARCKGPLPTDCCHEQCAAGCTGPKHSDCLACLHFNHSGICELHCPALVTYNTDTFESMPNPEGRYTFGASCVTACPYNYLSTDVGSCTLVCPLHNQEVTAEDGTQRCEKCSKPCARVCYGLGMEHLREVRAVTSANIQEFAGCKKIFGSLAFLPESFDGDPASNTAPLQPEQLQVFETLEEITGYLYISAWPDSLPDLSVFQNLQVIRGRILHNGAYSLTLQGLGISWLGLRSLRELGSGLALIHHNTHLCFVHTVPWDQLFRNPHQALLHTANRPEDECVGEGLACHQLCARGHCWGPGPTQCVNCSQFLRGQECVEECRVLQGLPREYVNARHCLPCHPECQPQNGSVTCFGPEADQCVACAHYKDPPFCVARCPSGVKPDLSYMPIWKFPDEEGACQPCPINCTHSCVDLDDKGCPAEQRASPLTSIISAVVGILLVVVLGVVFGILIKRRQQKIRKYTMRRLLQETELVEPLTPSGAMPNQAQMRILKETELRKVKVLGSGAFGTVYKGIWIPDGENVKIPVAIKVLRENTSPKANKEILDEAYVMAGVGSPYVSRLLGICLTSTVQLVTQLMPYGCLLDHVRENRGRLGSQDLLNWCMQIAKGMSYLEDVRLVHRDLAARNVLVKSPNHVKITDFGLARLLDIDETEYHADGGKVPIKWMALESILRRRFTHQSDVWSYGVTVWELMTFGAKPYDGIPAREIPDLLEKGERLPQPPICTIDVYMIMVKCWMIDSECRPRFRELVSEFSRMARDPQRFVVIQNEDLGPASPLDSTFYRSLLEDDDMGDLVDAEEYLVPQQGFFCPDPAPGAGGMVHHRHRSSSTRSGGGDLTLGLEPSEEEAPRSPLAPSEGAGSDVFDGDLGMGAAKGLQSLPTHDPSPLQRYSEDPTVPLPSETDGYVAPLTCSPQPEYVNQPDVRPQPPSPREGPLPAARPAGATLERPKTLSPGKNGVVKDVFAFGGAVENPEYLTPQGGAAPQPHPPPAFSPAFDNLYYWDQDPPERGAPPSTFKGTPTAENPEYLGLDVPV
Histamine H2 receptor, sequence (P25021 whole entry): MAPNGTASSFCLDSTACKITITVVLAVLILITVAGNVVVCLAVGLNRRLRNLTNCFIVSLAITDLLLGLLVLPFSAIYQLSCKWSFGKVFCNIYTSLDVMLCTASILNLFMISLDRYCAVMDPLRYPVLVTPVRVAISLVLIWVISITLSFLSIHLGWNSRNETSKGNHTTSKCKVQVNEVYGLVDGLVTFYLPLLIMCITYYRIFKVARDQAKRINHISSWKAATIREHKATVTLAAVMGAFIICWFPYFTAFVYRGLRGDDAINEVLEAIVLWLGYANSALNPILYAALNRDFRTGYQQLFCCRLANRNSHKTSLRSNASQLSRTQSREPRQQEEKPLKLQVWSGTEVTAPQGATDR
Voltage-gated inwardly rectifying potassium channel KCNH2, sequence (Q12809 whole entry): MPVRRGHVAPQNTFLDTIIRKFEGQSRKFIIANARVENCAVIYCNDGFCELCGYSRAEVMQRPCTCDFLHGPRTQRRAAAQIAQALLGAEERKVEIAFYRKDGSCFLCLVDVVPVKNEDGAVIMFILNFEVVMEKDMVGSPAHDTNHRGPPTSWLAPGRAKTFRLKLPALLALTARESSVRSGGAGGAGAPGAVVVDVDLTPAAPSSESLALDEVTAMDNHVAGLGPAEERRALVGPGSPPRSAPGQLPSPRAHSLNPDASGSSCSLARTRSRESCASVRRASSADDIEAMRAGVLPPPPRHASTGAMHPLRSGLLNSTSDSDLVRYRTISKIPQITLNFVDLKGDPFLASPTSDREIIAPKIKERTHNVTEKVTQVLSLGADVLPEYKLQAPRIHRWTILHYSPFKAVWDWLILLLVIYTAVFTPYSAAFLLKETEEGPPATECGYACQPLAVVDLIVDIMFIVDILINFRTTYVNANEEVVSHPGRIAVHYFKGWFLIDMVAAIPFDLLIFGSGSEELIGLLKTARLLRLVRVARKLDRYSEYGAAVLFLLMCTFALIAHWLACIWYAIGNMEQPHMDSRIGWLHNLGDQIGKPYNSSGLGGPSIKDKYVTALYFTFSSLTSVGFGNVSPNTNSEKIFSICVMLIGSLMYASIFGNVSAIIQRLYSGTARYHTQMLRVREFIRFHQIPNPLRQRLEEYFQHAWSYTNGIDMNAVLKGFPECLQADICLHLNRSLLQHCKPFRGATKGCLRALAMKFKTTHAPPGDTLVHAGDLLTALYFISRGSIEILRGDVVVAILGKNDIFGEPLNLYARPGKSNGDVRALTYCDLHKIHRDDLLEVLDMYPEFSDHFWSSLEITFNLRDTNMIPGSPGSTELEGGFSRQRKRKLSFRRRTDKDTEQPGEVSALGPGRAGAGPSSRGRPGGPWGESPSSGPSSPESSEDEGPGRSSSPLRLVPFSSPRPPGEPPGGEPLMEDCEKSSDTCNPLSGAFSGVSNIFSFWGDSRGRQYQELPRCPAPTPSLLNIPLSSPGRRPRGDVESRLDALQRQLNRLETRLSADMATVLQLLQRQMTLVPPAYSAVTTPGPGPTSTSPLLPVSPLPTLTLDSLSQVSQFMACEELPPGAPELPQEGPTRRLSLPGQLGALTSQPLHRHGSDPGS

SMILES	IC50 ([1]; insect cells)	IC50 (Histamine H2 receptor)	IC50 [2]	IC50 [3]	IC50 (Cathepsin G)	IC50 [4]	Ki [4]	IC50 ([1]; read-out: IC50) [µM]
NCC[C@H](O)C(=O)N[C@@H]1C[C@H](N)[C@@H](O[C@H]2O[C@H](CN)[C@@H](O)[C@H](O)[C@H]2O)[C@H](O)[C@H]1O[C@H]1O[C@H](CO)[C@@H](O)[C@H](N)[C@H]1O [AMIKACIN]	Not Active	Not Active	Not Active	Not Active	Not Active	Not Active	Not Active	
CCOC(=O)OC(C)OC1=C(C(=O)Nc2ccccn2)N(C)S(=O)(=O)c2ccccc21 (stereo not given) [AMPIROXICAM]	Not Active	Not Active	Not Active	Not Active	Not Active	Not Active	Not Active	
N#C[C@H](O[C@@H]1O[C@H](CO[C@@H]2O[C@H](CO)[C@@H](O)[C@H](O)[C@H]2O)[C@@H](O)[C@H](O)[C@H]1O)c1ccccc1 [AMYGDALIN]	Not Active	Not Active	Not Active	Not Active	Not Active	Not Active	Not Active	
N=C(N)NCCCCNC(=N)N.O=S(=O)(O)O [ARCAINE SULFATE]	Not Active	Not Active	Not Active	Not Active	Not Active	Not Active	Not Active	
C=C1[C@@H]2CCC3[C@@](CC[C@@H]4[C@H](C(=O)O)C[C@@H](O[C@@H]5O[C@H](CO)[C@@H](OS(=O)(=O)[O-])[C@H](OS(=O)(=O)[O-])[C@H]5OC(=O)CC(C)C)C[C@@]34C)(C2)[C@@H]1O.[K+].[K+] (stereo not given in full) [ATRACTYLOSIDE]	Not Active	Not Active	Not Active	Not Active	Not Active	Not Active	Not Active	
Cn1cnc([N+](=O)[O-])c1Sc1ncnc2nc[nH]c12 [AZATHIOPRINE]	Not Active	Not Active	Not Active	Not Active	Not Active	Not Active	Not Active	
CC1(C)S[C@@H]2[C@H](NC(=O)[C@H](NC(=O)N3CCNC3=O)c3ccccc3)C(=O)N2[C@H]1C(=O)O [AZLOCILLIN]	Not Active	Not Active	Not Active	Not Active	Not Active	Not Active	Not Active	
CC[C@H](C)[C@H](N)C1=N[C@H](C(=O)N[C@@H](CC(C)C)C(=O)N[C@H](CCC(=O)O)C(=O)N[C@H](C(=O)N[C@H]2CCCCNC(=O)[C@H](CC(N)=O)NC(=O)[C@@H](CC(=O)O)NC(=O)[C@H](Cc3cnc[nH]3)NC(=O)[C@@H](Cc3ccccc3)NC(=O)[C@H]([C@@H](C)CC)NC(=O)[C@@H](CCCN)NC2=O)[C@@H](C)CC)CS1 [BACITRACIN] ({Ileψ(thiazoline)Cys}-L[dE]IK[dOrn]I[dF]H[dD]N; lactam 4-C)	Not Active	Not Active	Not Active	Not Active	Not Active	Not Active	Not Active	
CCOC(=O)c1ccc(N)cc1 [BENZOCAINE]	Not Active	Not Active	Not Active	Not Active	Not Active	Not Active	Not Active	
OCc1ccccc1 [BENZYL ALCOHOL]	Not Active	Not Active	Not Active	Not Active	Not Active	Not Active	Not Active	
CC(C)(Oc1ccc(CCNC(=O)c2ccc(Cl)cc2)cc1)C(=O)O [BEZAFIBRATE]	Not Active	Not Active	Not Active	Not Active	Not Active	Not Active	Not Active	
CCCC[C@@H](CC)COC(=O)c1ccccc1C(=O)OC[C@@H](CC)CCCC [BIS(2-ETHYLHEXYL)PHTHALATE]	Not Active	Not Active	Not Active	Not Active	Not Active	Not Active	Not Active	
Oc1c(Cl)cc(Cl)cc1Sc1cc(Cl)cc(Cl)c1O [BITHIONOL]		Not Active	Not Active	Not Active	Not Active	Not Active	Not Active	2.15
Brc1ccccc1 [BROMOBENZENE]	Not Active	Not Active	Not Active	Not Active	Not Active	Not Active	Not Active	
CCCCOC(=O)c1ccc(N)cc1 [BUTAMBEN]	Not Active	Not Active	Not Active	Not Active	Not Active	Not Active	Not Active	
